This experiment has as its system 156681-154-R-J1-PDC tumor spheroids, viability % test/control. The experiment is described as follows: Anticancer human tumor 156681-154-R-J1-PDC patient-derived melanoma cell line growth inhibition [TAK]. The following applies: spheroids with HUVEC and MSC; for viability, T/C: stronger effect = lower value. An excerpt: Combinatorial screen of targeted agents with TAK-243 and ipatasertib in multi-cell type tumor spheroids
A high-throughput screen of multi-cell type tumor spheroids was designed to identify active combinations of targeted small molecules and TAK-243 or ipatasertib. Complex spheroids include a stromal component modeled by human endothelial cells (HUVEC) and fibroblasts modeled by human mesenchymal stem cells (MSCs). The concentration ranges selected for each drug and investigational agent were based upon clinically achievable concentrations if the clinical Cmax of the agent was known.
Compounds. The drugs and investigational agents: TAK-243 (785004), ipatasertib (767898), everolimus (733504), selumetinib (741078), bortezomib (756655), trametinib (758246), ixazomib (758254), vemurafenib (761431), dabrafenib (764134), sapanisertib (764658), alpelisib (765974), and copanlisib (816437), were obtained from the National Cancer Institute (NCI) Developmental Therapeutics Program Chemical Repository. The FDA-approved anticancer drug set is available from the NCI Developmental Therapeutics Program. […] The stock solutions were prepared in dimethyl sulfoxide (DMSO, Sigma-Aldrich, St. Louis, MO, cat. D2650) at 800-fold the tested concentration and stored at -70 degrees C prior to their use. All drugs and investigational agents were tested over a range starting from a high concentration at or near the clinical Cmax and decreasing in half-log increments. If the clinical Cmax for an agent had not been determined, the highest concentration tested was 10 microM.
NCI60 Cell Culture. NCI60 cell lines were obtained from the NCI Developmental Therapeutics Program Tumor Repository. For each lot of cells, the Repository performed Applied Biosystems AmpFLSTR Identifiler testing with PCR amplification to confirm consistency with the published Identifier STR profile for each cell line. Cells were kept in continuous culture for no more than 20 passages. The optimal seeding densities for each of the cell lines at each time point assessed were determined prior to performing the concentration response studies. Briefly, the NCI60 human tumor lines were grown as monolayers in RPMI 1640 medium supplemented with 10% FBS and 2 mmol/L L-glutamine.
An additional 2 lines were from the NCI60 cell line panel including melanomas, MALME-3M and SK-MEL-2. Pooled donor human umbilical vein endothelial cells (HUVEC, Lonza, cat. CC-2519) and human mesenchymal stem cells (hMSC, Lonza, cat. PT-2501) were purchased from Lonza (Walkersville, MD).
PDMR cell lines were grown in complete medium (DC medium): Dulbecco's modified Eagle's medium (DMEM)/F12 supplemented with 5% fetal bovine serum (FBS), 2 mM L-glutamine, 100 U/mL penicillin and 100 µg/ml streptomycin, 0.4 µg/ml hydrocortisone, 10 ng/ml epidermal growth factor (EGF) recombinant human protein, 24 µg/mL adenine, and 0.1 mg/mL primocin. During culture from frozen stock vials, PDMR cells were cultured in the same medium containing 10 µM Y-27632 (see Table 3). The PDCs were cultured in complete DMEM/F12 media without 10 microM Y-27632 dihydrochloride for at least two passages prior to the screen. The pooled donor HUVEC and hMSC were cultured in endothelial cell growth medium 2 (PromoCell, Heidelberg, Germany, cat. C-22011) and mesenchymal stem cell growth medium 2 (PromoCell, cat. C-28009), respectively. For all experiments, HUVEC and hMSC were used at passages </=5.
For the pre-screen, cell seeding densities were determined from a titration spanning the range from 5,000 to 313 cells per well. The mct-spheroids including 60% malignant cells, 25% HUVEC and 15% MSC dispensed as a mixture into U-bottom Ultra-Low Attachment 384-well plates (Corning, NY)
High-throughput Drug Combination Screening.
Prior to their inoculation into 384-well plates, malignant cells, HUVEC, and hMSC were removed from T flasks using TrypLE express (Thermo Fisher Scientific, cat. 12605036) and harvested by centrifugation for 5 min at 233 x g. […]

“And” between values parts separate entries of the source, which are not always exact repeats. Equal entries are not always repeated.
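Also: spheroids exposed to compounds for 7 days before the endpoint.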

On to `CC(C)(C)c1nc(-c2cccc(NS(=O)(=O)c3c(F)cccc3F)c2F)c(-c2ccnc(N)n2)s1`, for which the viability, T/C was 106% and 91.4% (compound 0.0316 µM); 95.8% and 92.3% (compound 0.1 µM); 41.5% and 37.8% (compound 0.316 µM); 17.2% and 17.8% (compound 1 µM); 14.4% and 14.5% (compound 3.16 µM); 18% (compound 10 µM). In addition, the IC50 (curve of compound) is 264 nM and 243 nM.
`CC(C)(C)c1nc(-c2cccc(NS(=O)(=O)c3c(F)cccc3F)c2F)c(-c2ccnc(N)n2)s1` + CC(C)NCC(C(=O)N1CCN(c2ncnc3c2C(C)CC3O)CC1)c1ccc(Cl)cc1: the IC50 is, setting by setting: (curve of first compound, second compound 0.3 µM) 239 nM; (curve of first compound, second compound 0.949 µM) 214 nM; (curve of first compound, second compound 3 µM) 148 nM; (curve of first compound, second compound 9.49 µM) less than 31.6 nM; (curve of first compound, second compound 30 µM) less than 31.6 nM. In addition, the viability, T/C runs as follows: (second compound 0.3 µM, first compound 0.0316 µM) 103%; (second compound 0.3 µM, first compound 0.1 µM) 90.7%; (second compound 0.3 µM, first compound 0.316 µM) 36.9%; (second compound 0.3 µM, first compound 1 µM) 14.5%; (second compound 0.3 µM, first compound 3.16 µM) 11.9%; (second compound 0.3 µM, first compound 10 µM) 12.7%. Moreover, the viability, T/C reads like this: (second compound 0.949 µM, first compound 0.0316 µM) 90.1%; (second compound 0.949 µM, first compound 0.1 µM) 79%; (second compound 0.949 µM, first compound 0.316 µM) 35.1%; (second compound 0.949 µM, first compound 1 µM) 12.7%; (second compound 0.949 µM, first compound 3.16 µM) 8.47%; (second compound 0.949 µM, first compound 10 µM) 8.82%. Also, the viability, T/C was 67.6% (second compound 3 µM, first compound 0.0316 µM); 62.4% (second compound 3 µM, first compound 0.1 µM); 26.1% (second compound 3 µM, first compound 0.316 µM); 7.91% (second compound 3 µM, first compound 1 µM); 5.22% (second compound 3 µM, first compound 3.16 µM); 6.48% (second compound 3 µM, first compound 10 µM). In addition, the viability, T/C by setting is: (second compound 9.49 µM, first compound 0.0316 µM) 40.1%; (second compound 9.49 µM, first compound 0.1 µM) 31.7%; (second compound 9.49 µM, first compound 0.316 µM) 17.3%; (second compound 9.49 µM, first compound 1 µM) 6.56%; (second compound 9.49 µM, first compound 3.16 µM) 3.41%; (second compound 9.49 µM, first compound 10 µM) 3.45%. For the same compound, the viability, T/C was 15.6% (second compound 30 µM, first compound 0.0316 µM); 13% (second compound 30 µM, first compound 0.1 µM); 7.77% (second compound 30 µM, first compound 0.316 µM); 2.12% (second compound 30 µM, first compound 1 µM); 1.1% (second compound 30 µM, first compound 3.16 µM); 1.52% (second compound 30 µM, first compound 10 µM).

The values above are taken from PubChem BioAssay AID2060363 (Molecular Pharmacology Branch, DTP, NCI, 2025).
